Experimental findings from US10604512B2, “3-(1H-indol-2-yl)-1H-indazoles and therapeutic uses thereof” (Samumed, LLC, priority 2015, dated 2020) are described below.

Structures are written as SMILES.

Common to all, as to assay type: cell-based
Assay [1] has as its system Primary human fibroblasts derived from IPF patients (LL29 cells) treated with TGF-β1. Kind of assay: Inhibition of the fibrotic process: αSMA staining in TGF-β1-treated primary human fibroblasts from IPF patients (LL29 cells). As to conditions: Fibroblast, 96 h; for EC50: % αSMA-positive LL29 cells, TGF-β1 20 ng/mL, 4 days; for inhibition at 10 µM: given where EC50 >10 μM, αSMA, LL29 cells, TGF-β1, 4 days, read-out: percent inhibition at 10 μM. The essentials: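 LL29 IPF-patient fibroblasts in 1% FBS stimulated with TGF-β1 (20 ng/mL) and compound (10 μM–1.87 nM, 0.1% DMSO) for 4 days at 37 °C. SYTOX-positive cells excluded; % αSMA-positive cells imaged, normalized to TGF-β1/DMSO wells; EC50 by nonlinear regression, else % inhibition at 10 μM.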

In assay [2] the test system is Wnt activity (Sp5-Luc reporter, TCF/LEF binding sites) in SW480 colon carcinoma cells. Put plainly: Screening assay for Wnt activity: Sp5-Luc reporter gene assay in stably transduced SW480 colon carcinoma cells. Particulars: Homo sapiens, overnight incubation, 10-point curve from 10 μM. The essentials:
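SW480 cells stably transduced with a luciferase reporter driven by an Sp5 promoter of eight TCF/LEF sites were plated at 4,000 cells/well in 1% FBS medium. They were exposed overnight at 37° C to a 10-point 1:3 dilution series from 10 μM (0.1% DMSO). Luminescence was normalized to DMSO for four-parameter EC50, or percent inhibition at 10 μM.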

For another assay, the system named is SW480 colon cancer cells. Put plainly: Cell viability assay (CellTiter-Blue) in SW480 colon cancer cells. Particulars: Homo sapiens, 96 h, four days; for inhibition at 10 µM: given where EC50 >10 μM, read-out: percent inhibition at 10 μM; for EC50: CellTiter-Blue. The method in brief:
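4-day exposure, 37 °C/5% CO2; ~2×10^3 SW480 cells/well; 8-pt 1:3 curve, 10–0.0045 μM, duplicates vs DMSO controls. Resazurin→resorufin fluorescence readout, ~3 h. EC50 by nonlinear fit; if >10 μM, % inhibition at 10 μM reported.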
Background: Resazurin is reduced to fluorescent resorufin, in cell work by metabolically active cells.

Regarding `CC(C)CC(=O)Nc1cncc(-c2ccc3[nH]nc(-c4cc5c(-c6ccc(F)cc6)cccc5[nH]4)c3c2)c1` [Compound 30, N-(5-(3-(4-(4-Fluorophenyl)-1H-indol-2-yl)-1H-indazol-5-yl)pyridin-3-yl)-3-methylbutanamide], the EC50 in assay [1] is 2.52 µM; in assay [2], 0.42 µM; in the assay on SW480 colon cancer cells, more than 10 µM. Besides, the inhibition at 10 µM in the assay with SW480 colon cancer cells came to 38.2%.
For `CCNCc1cncc(-c2ccc3[nH]nc(-c4cc5c(-c6ccncc6)cccc5[nH]4)c3c2)c1` [Compound 118, N-((5-(3-(4-(Pyridin-4-yl)-1H-indol-2-yl)-1H-indazol-5-yl)pyridin-3-yl)methyl)ethanamine], the EC50 stood at 0.888 µM in assay [1], 1.44 µM in assay [2] and 0.528 µM in the assay with SW480 colon cancer cells.
For the compound `c1ccc(-c2ccc3[nH]nc(-c4cc5c(-c6ccoc6)cccc5[nH]4)c3c2)nc1` [Compound 336, 3-(4-(Furan-3-yl)-1H-indol-2-yl)-5-(pyridin-2-yl)-1H-indazole], the EC50 was more than 10 µM in assay [1], 3.91 µM in assay [2] and 3.1 µM in the assay with SW480 colon cancer cells. Besides, the inhibition at 10 µM in assay [1] was 0%.
Turning to `CN(C)Cc1cncc(-c2ccc3[nH]nc(-c4cc5c(-c6cccs6)cccc5[nH]4)c3c2)c1` [Compound 349, N,N-Dimethyl-1-(5-(3-(4-(thiophen-2-yl)-1H-indol-2-yl)-1H-indazol-5-yl)pyridin-3-yl)methanamine], the EC50 in assay [1] amounted to 1.15 µM; in assay [2], 0.169 µM; with SW480 colon cancer cells, 0.841 µM.
The matching figures for `c1ccc2[nH]c(-c3n[nH]c4ccc(-c5cncc(OCCN6CCCC6)c5)cc34)cc2c1` [Compound 686, 3-(1H-Indol-2-yl)-5-(5-(2-(pyrrolidin-1-yl)ethoxy)pyridin-3-yl)-1H-indazole]: 7.39 µM, 1.09 µM and 0.574 µM.
In the case of `O=C(Nc1cncc(-c2ccc3[nH]nc(-c4cc5c(-c6ccccc6F)cccc5[nH]4)c3c2)c1)C1CCCC1` [Compound 78, N-(5-(3-(4-(2-Fluorophenyl)-1H-indol-2-yl)-1H-indazol-5-yl)pyridin-3-yl) cyclopentanecarboxamide], the EC50 in assay [1] is more than 10 µM; in assay [2] it was 1.06 µM; in the assay with SW480 colon cancer cells, more than 10 µM. Also, the values for the inhibition at 10 µM (in assay [1]; in the assay with SW480 colon cancer cells) were 3.7% and 8.3%, respectively.
For the compound `CN1CCN(c2cccc3[nH]c(-c4n[nH]c5ccc(-c6cncc(N)c6)cc45)cc23)CC1` [Compound 227, 5-(3-(4-(4-Methylpiperazin-1-yl)-1H-indol-2-yl)-1H-indazol-5-yl)pyridin-3-amine], the EC50 in assay [1] turned out to be 4 µM; in assay [2], 0.474 µM; with SW480 colon cancer cells, 2.96 µM.
Turning to `c1cc(N2CCCCC2)c2cc(-c3n[nH]c4ccc(-c5cncc(OC6CCCCC6)c5)cc34)[nH]c2c1` [Compound 635, 5-(5-(Cyclohexyloxy)pyridin-3-yl)-3-(4-(piperidin-1-yl)-1H-indol-2-yl)-1H-indazole], the EC50 in assay [1] is 2.41 µM; in assay [2], 2.93 µM; with SW480 colon cancer cells, more than 10 µM. Moreover, the inhibition at 10 µM in the assay on SW480 colon cancer cells is 45.7%.
For the compound `O=C(Nc1cncc(-c2ccc3[nH]nc(-c4cc5ncccc5[nH]4)c3c2)c1)C1CCC1` [Compound 525, N-(5-(3-(1H-Pyrrolo[3,2-b]pyridin-2-yl)-1H-indazol-5-yl)pyridin-3-yl) cyclobutanecarboxamide], the EC50 in assay [1] is more than 10 µM; in assay [2], 0.109 µM; in the assay on SW480 colon cancer cells, 0.547 µM. Moreover, the inhibition at 10 µM in assay [1] amounted to 29.4%.
Consider `c1csc(-c2cccc3[nH]c(-c4n[nH]c5ccc(-c6ccncc6)cc45)cc23)c1` [Compound 354, 5-(pyridin-4-yl)-3-(4-(thiophen-2-yl)-1H-indol-2-yl)-1H-indazole], for which the EC50 in assay [1] was more than 10 µM; in assay [2] it was 4.94 µM; with SW480 colon cancer cells, 8.93 µM. In assay [1], the inhibition at 10 µM was 0%.
For `CCCC(=O)Nc1cncc(-c2ccc3[nH]nc(-c4cc5c(-c6ccncc6)cccc5[nH]4)c3c2)c1` [Compound 129, N-(5-(3-(4-(Pyridin-4-yl)-1H-indol-2-yl)-1H-indazol-5-yl)pyridin-3-yl) butyramide], the 50% effective concentration (EC50) in assay [1] was 2.87 µM; in assay [2] it was 0.6 µM; in the assay with SW480 colon cancer cells, 9.53 µM.
Take `CC(C)(C)CC(=O)Nc1cncc(-c2ccc3[nH]nc(-c4cc5c(-c6ccccc6F)cccc5[nH]4)c3c2)c1` [Compound 72, N-(5-(3-(4-(2-Fluorophenyl)-1H-indol-2-yl)-1H-indazol-5-yl)pyridin-3-yl)-3,3-dimethylbutanamide]: the EC50 in assay [1] was more than 10 µM; in assay [2] it was 4.26 µM; in the assay with SW480 colon cancer cells, more than 10 µM. The figures for the inhibition at 10 µM (in assay [1]; with SW480 colon cancer cells) were 0% and 16.2%, respectively.
For `CC(C)(C)CC(=O)Nc1cncc(-c2ccc3[nH]nc(-c4cc5c(-c6ccc(F)cc6)cccc5[nH]4)c3c2)c1` [Compound 44, N-(5-(3-(4-(4-Fluorophenyl)-1H-indol-2-yl)-1H-indazol-5-yl)pyridin-3-yl)-3,3-dimethylbutanamide], the values for the EC50 (in assay [1]; in assay [2]; with SW480 colon cancer cells) were 4.99 µM, 1.15 µM and more than 10 µM, respectively. Besides, the inhibition at 10 µM in the assay on SW480 colon cancer cells is 23.1%.
The matching figures for `O=C(Nc1cncc(-c2ccc3[nH]nc(-c4cc5c(N6CCCCC6)cccc5[nH]4)c3c2)c1)C1CC1` [Compound 188, N-(5-(3-(4-(Piperidin-1-yl)-1H-indol-2-yl)-1H-indazol-5-yl)pyridin-3-yl) cyclopropanecarboxamide]: 5.79 µM, 0.195 µM, more than 10 µM and 29.5%.
For the compound `CC(C)(C)C(=O)Nc1cncc(-c2ccc3[nH]nc(-c4cc5c(-c6cc(F)cc(CNS(C)(=O)=O)c6)cccc5[nH]4)c3c2)c1` [Compound 484, N-(5-(3-(4-(3-Fluoro-5-(methylsulfonamidomethyl)phenyl)-1H-indol-2-yl)-1H-indazol-5-yl)pyridin-3-yl)pivalamide], the EC50 in assay [1] was more than 10 µM; in assay [2] it was 0.115 µM; in the assay on SW480 colon cancer cells it was more than 10 µM. In addition, the figures for the inhibition at 10 µM (in assay [1]; in the assay with SW480 colon cancer cells) were 25.5% and 37.5%, respectively.
Consider `CCCC(=O)Nc1cncc(-c2ccc3[nH]nc(-c4cc5c(-c6cccc(F)c6)cccc5[nH]4)c3c2)c1` [Compound 17, N-(5-(3-(4-(3-Fluorophenyl)-1H-indol-2-yl)-1H-indazol-5-yl)pyridin-3-yl) butyramide], for which the concentration for a half-maximal effect (EC50) in assay [1] was more than 10 µM; in assay [2], 0.125 µM; in the assay on SW480 colon cancer cells, more than 10 µM. The inhibition at 10 µM in assay [1] worked out at 0%; in the assay with SW480 colon cancer cells, 12.9%.
As for `CC(C)(C)C(=O)Nc1cncc(-c2ccc3[nH]nc(-c4cc5c(-c6ccc(F)cc6)cccc5[nH]4)c3c2)c1` [Compound 36, N-(5-(3-(4-(4-Fluorophenyl)-1H-indol-2-yl)-1H-indazol-5-yl)pyridin-3-yl) pivalamide], the concentration giving a half-maximal response (EC50) in assay [1] was 3.33 µM; in assay [2], 0.655 µM; in the assay with SW480 colon cancer cells, more than 10 µM. In the assay with SW480 colon cancer cells, the inhibition at 10 µM stood at 50.4%.
In the case of `CC(C)C(=O)Nc1cncc(-c2ccc3[nH]nc(-c4cc5c(-c6ccsc6)cccc5[nH]4)c3c2)c1` [Compound 289, N-(5-(3-(4-(Thiophen-3-yl)-1H-indol-2-yl)-1H-indazol-5-yl)pyridin-3-yl) isobutyramide], the EC50 in assay [1] was 8.4 µM; in assay [2] it was 0.12 µM; with SW480 colon cancer cells, 0.375 µM.
The matching figures for `CC(C)C(=O)Nc1cncc(-c2ccc3[nH]nc(-c4cc5c(N6CCN(C)CC6)cccc5[nH]4)c3c2)c1` [Compound 233, N-(5-(3-(4-(4-Methylpiperazin-1-yl)-1H-indol-2-yl)-1H-indazol-5-yl)pyridin-3-yl)isobutyramide]: 1.31 µM, 0.565 µM and 3.16 µM.
In the case of `c1cncc(-c2cccc3[nH]c(-c4n[nH]c5ccc(-c6cncc(CN7CCCCC7)c6)cc45)cc23)c1` [Compound 99, 5-(5-(Piperidin-1-ylmethyl)pyridin-3-yl)-3-(4-(pyridin-3-yl)-1H-indol-2-yl)-1H-indazole], the EC50 is more than 10 µM in assay [1], 5 µM in assay [2] and more than 10 µM with SW480 colon cancer cells. The inhibition at 10 µM in the assay with SW480 colon cancer cells came to 6.5%.
As for `c1cnc2cc(-c3n[nH]c4ccc(-c5cncc(CN6CCCCC6)c5)cc34)[nH]c2c1` [Compound 519, 5-(5-(Piperidin-1-ylmethyl)pyridin-3-yl)-3-(1H-pyrrolo[3,2-b]pyridin-2-yl)-1H-indazole], the EC50 is more than 10 µM in assay [1], 0.165 µM in assay [2] and 0.106 µM in the assay with SW480 colon cancer cells. Also, the inhibition at 10 µM in assay [1] came to 25.4%.
Turning to `O=C(Nc1cncc(-c2ccc3[nH]nc(-c4cc5c(-c6cccc(F)c6)cccc5[nH]4)c3c2)c1)C1CC1` [Compound 20, N-(5-(3-(4-(3-Fluorophenyl)-1H-indol-2-yl)-1H-indazol-5-yl)pyridin-3-yl) cyclopropanecarboxamide], the results for the EC50 (in assay [1]; in assay [2]; with SW480 colon cancer cells) were 4.55 µM, 0.1 µM and more than 10 µM, respectively. Besides, the inhibition at 10 µM in the assay with SW480 colon cancer cells was 15.6%.

As usually defined, the EC50 is the midpoint of the concentration-response curve. The low end stands for greater potency, the high end for weaker potency. For orientation: inhibition means the percentage by which the read-out fell short of the control.
